Data taken from BindingDB's records for doi:10.1021/jm7012858 (Wyeth Research, 2008).
pIC50: −log10 of the molar value.

molecular target: Phosphatidylinositol 3-kinase regulatory subunit alpha/4,5-bisphosphate 3-kinase catalytic subunit alpha isoform (Homo sapiens, UniProt P42336); experiment: PI3K Inhibition Assay; settings: not given
Description: Inhibition of PI3K enzyme activity is measured in a microtiter plate-based fluorescence polarization (FP) assay.

Phosphatidylinositol 3-kinase regulatory subunit alpha/4,5-bisphosphate 3-kinase catalytic subunit alpha isoform, sequence (P27986 whole entry, canonical isoform): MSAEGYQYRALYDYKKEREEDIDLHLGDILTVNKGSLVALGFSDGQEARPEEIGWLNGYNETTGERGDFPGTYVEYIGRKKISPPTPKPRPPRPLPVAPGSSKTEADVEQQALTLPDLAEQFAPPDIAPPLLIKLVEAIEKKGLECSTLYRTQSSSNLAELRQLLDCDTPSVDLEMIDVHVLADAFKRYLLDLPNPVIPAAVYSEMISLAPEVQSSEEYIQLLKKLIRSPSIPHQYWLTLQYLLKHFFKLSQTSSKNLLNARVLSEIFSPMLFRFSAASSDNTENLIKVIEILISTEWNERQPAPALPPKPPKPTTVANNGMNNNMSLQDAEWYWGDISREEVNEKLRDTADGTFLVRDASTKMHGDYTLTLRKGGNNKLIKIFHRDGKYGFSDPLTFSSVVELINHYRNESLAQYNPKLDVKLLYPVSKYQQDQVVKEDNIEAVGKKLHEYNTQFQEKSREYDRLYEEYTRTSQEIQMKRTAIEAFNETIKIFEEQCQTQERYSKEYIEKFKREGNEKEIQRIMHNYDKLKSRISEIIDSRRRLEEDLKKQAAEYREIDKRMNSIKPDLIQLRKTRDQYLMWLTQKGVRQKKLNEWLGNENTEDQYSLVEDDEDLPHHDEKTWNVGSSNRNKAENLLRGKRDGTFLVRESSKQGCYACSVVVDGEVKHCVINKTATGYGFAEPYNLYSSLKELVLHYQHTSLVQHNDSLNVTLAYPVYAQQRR
Phosphatidylinositol 3-kinase regulatory subunit alpha/4,5-bisphosphate 3-kinase catalytic subunit alpha isoform, sequence (P42336 whole entry, canonical isoform): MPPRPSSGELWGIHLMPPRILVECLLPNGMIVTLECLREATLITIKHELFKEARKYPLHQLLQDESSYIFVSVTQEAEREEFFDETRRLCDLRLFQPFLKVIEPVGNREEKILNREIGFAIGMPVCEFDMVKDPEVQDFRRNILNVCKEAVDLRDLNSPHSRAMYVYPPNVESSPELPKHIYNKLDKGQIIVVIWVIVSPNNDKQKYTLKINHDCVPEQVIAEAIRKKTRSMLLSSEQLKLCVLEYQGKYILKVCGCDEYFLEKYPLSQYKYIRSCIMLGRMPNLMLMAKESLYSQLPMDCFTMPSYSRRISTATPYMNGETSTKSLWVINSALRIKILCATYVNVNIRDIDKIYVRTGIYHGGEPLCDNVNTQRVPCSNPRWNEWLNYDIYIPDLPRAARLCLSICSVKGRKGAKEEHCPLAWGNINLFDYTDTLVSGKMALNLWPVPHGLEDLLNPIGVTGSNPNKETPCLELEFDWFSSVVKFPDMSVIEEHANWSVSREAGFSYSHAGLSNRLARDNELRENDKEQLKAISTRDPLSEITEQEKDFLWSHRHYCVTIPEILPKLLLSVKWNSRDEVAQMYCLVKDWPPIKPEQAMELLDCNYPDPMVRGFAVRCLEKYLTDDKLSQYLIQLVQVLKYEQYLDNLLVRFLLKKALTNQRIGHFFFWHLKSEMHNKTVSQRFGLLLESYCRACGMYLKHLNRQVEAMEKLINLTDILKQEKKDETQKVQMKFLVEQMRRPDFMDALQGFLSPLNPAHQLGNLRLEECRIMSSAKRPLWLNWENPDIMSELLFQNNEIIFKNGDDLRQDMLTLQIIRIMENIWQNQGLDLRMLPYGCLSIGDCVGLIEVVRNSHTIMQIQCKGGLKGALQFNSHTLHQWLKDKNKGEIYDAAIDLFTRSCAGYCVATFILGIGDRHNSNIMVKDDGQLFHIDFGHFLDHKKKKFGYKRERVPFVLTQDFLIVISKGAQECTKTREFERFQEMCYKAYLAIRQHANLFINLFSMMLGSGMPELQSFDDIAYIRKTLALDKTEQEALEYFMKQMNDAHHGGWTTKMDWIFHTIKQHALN

Q: COC[C@H]1OC(=O)C(=CN2CCN(CCN3CCOCC3)CC2)C2C(=O)C(=O)C3=C([C@H](OC(C)=O)C[C@@]4(C)C3CC[C@@H]4O)[C@]21C (stereo partly drawn) [(2R,3S,6E,14S,15S,17R)-8,14-dihydroxy-3-(methoxymethyl)-2,15-dimethyl-6-({4-[2-(morpholin-4-yl)ethyl]piperazin-1-yl}methylidene)-5,9-dioxo-4-oxatetracyclo[8.7.0.0^{2,7}.0^{11,15}]heptadeca-1(10),7-dien-17-yl acetate] was tested. Which pIC50 did it give?
A: 7.11

Q: COC[C@H]1OC(=O)C(=CN2CCN(CCCN3CCOCC3)CC2)C2C(=O)C(=O)C3=C([C@H](OC(C)=O)C[C@@]4(C)C3CC[C@@H]4O)[C@]21C (stereo partly drawn) [(2R,3S,6E,14S,15S,17R)-8,14-dihydroxy-3-(methoxymethyl)-2,15-dimethyl-6-({4-[3-(morpholin-4-yl)propyl]piperazin-1-yl}methylidene)-5,9-dioxo-4-oxatetracyclo[8.7.0.0^{2,7}.0^{11,15}]heptadeca-1(10),7-dien-17-yl acetate] was tested. Which pIC50 did it give?
A: 7.35

Q: COC[C@H]1OC(=O)C(=CN(C)CCCN2CCN(C)CC2)C2C(=O)C(=O)C3=C([C@H](OC(C)=O)C[C@@]4(C)C3CC[C@@H]4O)[C@]21C (stereo partly drawn) [(2R,3S,6E,14S,15S,17R)-8,14-dihydroxy-3-(methoxymethyl)-2,15-dimethyl-6-({methyl[3-(4-methylpiperazin-1-yl)propyl]amino}methylidene)-5,9-dioxo-4-oxatetracyclo[8.7.0.0^{2,7}.0^{11,15}]heptadeca-1(10),7-dien-17-yl acetate] was tested. Which pIC50 did it give?
A: 8.00

Q: With COC[C@H]1OC(=O)C(=CN(C)CCCN2CCOCC2)C2C(=O)C(=O)C3=C([C@H](OC(C)=O)C[C@@]4(C)C3CC[C@@H]4O)[C@]21C (stereo partly drawn) [(2R,3S,6E,14S,15S,17R)-8,14-dihydroxy-3-(methoxymethyl)-2,15-dimethyl-6-({methyl[3-(morpholin-4-yl)propyl]amino}methylidene)-5,9-dioxo-4-oxatetracyclo[8.7.0.0^{2,7}.0^{11,15}]heptadeca-1(10),7-dien-17-yl acetate] as the compound, how does the pIC50 read?
A: 7.62

Q: How did the pIC50 turn out when COC[C@H]1OC(=O)C(=CN2CCN(C)CC2)C2C(=O)C(=O)C3=C([C@H](OC(C)=O)C[C@@]4(C)C3CC[C@@H]4O)[C@]21C (stereo partly drawn) [(2R,3S,6E,14S,15S,17R)-8,14-dihydroxy-3-(methoxymethyl)-2,15-dimethyl-6-[(4-methylpiperazin-1-yl)methylidene]-5,9-dioxo-4-oxatetracyclo[8.7.0.0^{2,7}.0^{11,15}]heptadeca-1(10),7-dien-17-yl acetate] was run?
A: 7.05

Q: How did the pIC50 turn out when COC[C@H]1OC(=O)C(=CN2CCN(C3CCN(C)CC3)CC2)C2C(=O)C(=O)C3=C([C@H](OC(C)=O)C[C@@]4(C)C3CC[C@@H]4O)[C@]21C (stereo partly drawn) [(2R,3S,6E,14S,15S,17R)-8,14-dihydroxy-3-(methoxymethyl)-2,15-dimethyl-6-{[4-(1-methylpiperidin-4-yl)piperazin-1-yl]methylidene}-5,9-dioxo-4-oxatetracyclo[8.7.0.0^{2,7}.0^{11,15}]heptadeca-1(10),7-dien-17-yl acetate] was run?
A: 7.04

Q: How did the pIC50 turn out when COC[C@H]1OC(=O)C(=CN(C)N2CCC(C)C2)C2C(=O)C(=O)C3=C([C@H](OC(C)=O)C[C@@]4(C)C3CC[C@@H]4O)[C@]21C (stereo partly drawn) [(2R,3S,6E,14S,15S,17R)-8,14-dihydroxy-3-(methoxymethyl)-2,15-dimethyl-6-{[methyl(3-methylpyrrolidin-1-yl)amino]methylidene}-5,9-dioxo-4-oxatetracyclo[8.7.0.0^{2,7}.0^{11,15}]heptadeca-1(10),7-dien-17-yl acetate] was run?
A: 6.90

Q: How did the pIC50 turn out when COC[C@H]1OC(=O)C(=CN(C)CCCN2CCN(c3ccc(OC)cc3)CC2)C2C(=O)C(=O)C3=C([C@H](OC(C)=O)C[C@@]4(C)C3CC[C@@H]4O)[C@]21C (stereo partly drawn) [(2R,3S,6E,14S,15S,17R)-8,14-dihydroxy-3-(methoxymethyl)-6-[({3-[4-(4-methoxyphenyl)piperazin-1-yl]propyl}(methyl)amino)methylidene]-2,15-dimethyl-5,9-dioxo-4-oxatetracyclo[8.7.0.0^{2,7}.0^{11,15}]heptadeca-1(10),7-dien-17-yl acetate] was run?
A: 7.82

Q: With COC[C@H]1OC(=O)C(=CN2CCC(C(=O)OC)CC2)C2C(=O)C(=O)C3=C([C@H](OC(C)=O)C[C@@]4(C)C3CC[C@@H]4O)[C@]21C (stereo partly drawn) [methyl 1-{[(2R,3S,6E,14S,15S,17R)-17-(acetyloxy)-8,14-dihydroxy-3-(methoxymethyl)-2,15-dimethyl-5,9-dioxo-4-oxatetracyclo[8.7.0.0^{2,7}.0^{11,15}]heptadeca-1(10),7-dien-6-ylidene]methyl}piperidine-4-carboxylate] as the compound, how does the pIC50 read?
A: 7.51

same assay, conditions: pH 7.5; 22 °C

Q: How did the pIC50 turn out when COC[C@H]1OC(=O)C(=CN(C)CCCN(C)C)C2C(=O)C(=O)C3=C([C@H](O)C[C@@]4(C)C3CC[C@@H]4O)[C@]21C (stereo partly drawn) [(2R,3S,6Z,14S,15S,17R)-6-({[3-(dimethylamino)propyl](methyl)amino}methylidene)-8,14,17-trihydroxy-3-(methoxymethyl)-2,15-dimethyl-4-oxatetracyclo[8.7.0.0^{2,7}.0^{11,15}]heptadeca-1(10),7-diene-5,9-dione] was run?
A: 6.20

Q: COC[C@H]1OC(=O)C(=CNCCCN(C)C)C2C(=O)C(=O)C3=C([C@H](OC(C)=O)C[C@@]4(C)C3CC[C@@H]4O)[C@]21C (stereo partly drawn) [(2R,3S,6Z,14S,15S,17R)-6-({[3-(dimethylamino)propyl]amino}methylidene)-8,14-dihydroxy-3-(methoxymethyl)-2,15-dimethyl-5,9-dioxo-4-oxatetracyclo[8.7.0.0^{2,7}.0^{11,15}]heptadeca-1(10),7-dien-17-yl acetate] was tested. Which pIC50 did it give?
A: < 5.00

Q: COC[C@H]1OC(=O)C(=CN(CCN(C)C)Cc2ccccc2)C2C(=O)C(=O)C3=C([C@H](OC(C)=O)C[C@@]4(C)C3CC[C@@H]4O)[C@]21C (stereo partly drawn) [(2R,3S,6Z,14S,15S,17R)-6-({benzyl[2-(dimethylamino)ethyl]amino}methylidene)-8,14-dihydroxy-3-(methoxymethyl)-2,15-dimethyl-5,9-dioxo-4-oxatetracyclo[8.7.0.0^{2,7}.0^{11,15}]heptadeca-1(10),7-dien-17-yl acetate] was tested. Which pIC50 did it give?
A: 7.18

Q: COC[C@H]1OC(=O)C(=CN(CCN(C)C)C(C)(C)C)C2C(=O)C(=O)C3=C([C@H](OC(C)=O)C[C@@]4(C)C3CC[C@@H]4O)[C@]21C (stereo partly drawn) [(2R,3S,6Z,14S,15S,17R)-6-({tert-butyl[2-(dimethylamino)ethyl]amino}methylidene)-8,14-dihydroxy-3-(methoxymethyl)-2,15-dimethyl-5,9-dioxo-4-oxatetracyclo[8.7.0.0^{2,7}.0^{11,15}]heptadeca-1(10),7-dien-17-yl acetate] was tested. Which pIC50 did it give?
A: 8.02

Q: CCN(C=C1C(=O)O[C@H](COC)[C@]2(C)C3=C(C(=O)C(=O)C12)C1CC[C@H](O)[C@@]1(C)C[C@H]3O)CC (stereo partly drawn) [(2R,3S,6Z,14S,15S,17R)-6-[(diethylamino)methylidene]-8,14,17-trihydroxy-3-(methoxymethyl)-2,15-dimethyl-4-oxatetracyclo[8.7.0.0^{2,7}.0^{11,15}]heptadeca-1(10),7-diene-5,9-dione] was tested. Which pIC50 did it give?
A: 5.11

Q: How did the pIC50 turn out when CCN(C=C1C(=O)O[C@H](COC)[C@]2(C)C3=C(C(=O)C(=O)C12)C1CC[C@H](O)[C@@]1(C)C[C@H]3OC(C)=O)CC (stereo partly drawn) [(2R,3S,6Z,14S,15S,17R)-6-[(diethylamino)methylidene]-8,14-dihydroxy-3-(methoxymethyl)-2,15-dimethyl-5,9-dioxo-4-oxatetracyclo[8.7.0.0^{2,7}.0^{11,15}]heptadeca-1(10),7-dien-17-yl acetate] was run?
A: 6.42

Q: CCNC=C1C(=O)O[C@H](COC)[C@]2(C)C3=C(C(=O)C(=O)C12)C1CC[C@H](O)[C@@]1(C)C[C@H]3OC(C)=O (stereo partly drawn) [(2R,3S,6Z,14S,15S,17R)-6-[(ethylamino)methylidene]-8,14-dihydroxy-3-(methoxymethyl)-2,15-dimethyl-5,9-dioxo-4-oxatetracyclo[8.7.0.0^{2,7}.0^{11,15}]heptadeca-1(10),7-dien-17-yl acetate] was tested. Which pIC50 did it give?
A: < 5.00

Q: With COC[C@H]1OC(=O)C(=CNC(C)(C)C)C2C(=O)C(=O)C3=C([C@H](OC(C)=O)C[C@@]4(C)C3CC[C@@H]4O)[C@]21C (stereo partly drawn) [(2R,3S,6Z,14S,15S,17R)-6-[(tert-butylamino)methylidene]-8,14-dihydroxy-3-(methoxymethyl)-2,15-dimethyl-5,9-dioxo-4-oxatetracyclo[8.7.0.0^{2,7}.0^{11,15}]heptadeca-1(10),7-dien-17-yl acetate] as the compound, how does the pIC50 read?
A: < 5.00

Q: CCCCN(C)C=C1C(=O)O[C@H](COC)[C@]2(C)C3=C(C(=O)C(=O)C12)C1CC[C@H](O)[C@@]1(C)C[C@H]3OC(C)=O (stereo partly drawn) [(2R,3S,6Z,14S,15S,17R)-6-{[butyl(methyl)amino]methylidene}-8,14-dihydroxy-3-(methoxymethyl)-2,15-dimethyl-5,9-dioxo-4-oxatetracyclo[8.7.0.0^{2,7}.0^{11,15}]heptadeca-1(10),7-dien-17-yl acetate] was tested. Which pIC50 did it give?
A: 6.20

Q: With COC[C@H]1OC(=O)C(=CN(CCO)C(C)(C)C)C2C(=O)C(=O)C3=C([C@H](OC(C)=O)C[C@@]4(C)C3CC[C@@H]4O)[C@]21C (stereo partly drawn) [(2R,3S,6Z,14S,15S,17R)-6-{[tert-butyl(2-hydroxyethyl)amino]methylidene}-8,14-dihydroxy-3-(methoxymethyl)-2,15-dimethyl-5,9-dioxo-4-oxatetracyclo[8.7.0.0^{2,7}.0^{11,15}]heptadeca-1(10),7-dien-17-yl acetate] as the compound, how does the pIC50 read?
A: 5.95

Q: How did the pIC50 turn out when COC[C@H]1OC(=O)C(=CN(C)C(C)(C)C)C2C(=O)C(=O)C3=C([C@H](OC(C)=O)C[C@@]4(C)C3CC[C@@H]4O)[C@]21C (stereo partly drawn) [(2R,3S,6Z,14S,15S,17R)-6-{[tert-butyl(methyl)amino]methylidene}-8,14-dihydroxy-3-(methoxymethyl)-2,15-dimethyl-5,9-dioxo-4-oxatetracyclo[8.7.0.0^{2,7}.0^{11,15}]heptadeca-1(10),7-dien-17-yl acetate] was run?
A: 6.36

Q: COC[C@H]1OC(=O)C(=CN2CCCC2)C2C(=O)C(=O)C3=C([C@H](OC(C)=O)C[C@@]4(C)C3CC[C@@H]4O)[C@]21C (stereo partly drawn) [(2R,3S,6Z,14S,15S,17R)-8,14-dihydroxy-3-(methoxymethyl)-2,15-dimethyl-5,9-dioxo-6-(pyrrolidin-1-ylmethylidene)-4-oxatetracyclo[8.7.0.0^{2,7}.0^{11,15}]heptadeca-1(10),7-dien-17-yl acetate] was tested. Which pIC50 did it give?
A: 6.30

Q: C=CCN(C=C1C(=O)O[C@H](COC)[C@]2(C)C3=C(C(=O)C(=O)C12)C1CCC(=O)[C@@]1(C)C[C@H]3OC(C)=O)CC=C (some centres not stated) [PX-866] was tested. Which pIC50 did it give?
A: 7.06
